Data from patent US7608640B2, “Glycine betaine and its use” (priority 2001, dated 2009).

Legend:
[1] = tested on: venous thrombosis induced by stasis (lower vena cava ligature); test: Stasis-induced venous thrombosis, clot weight; type: in vivo, rat
Experimental: B/Stasis-induced Thrombosis A laparotomy was performed to open the lower vena cava, on which a ligature was placed at T0, followed by subcutaneous injection of glycine betaine at T0+2 hours, followed by withdrawal of the clot and blood samples at T0+6 hours. Male Wistar rats were used for these tests. They weighed between 200 and 250 grams. After an 8-day stabilisation period, the rats were subjected to fasting for 12 hours. They were then anaesthetised, glycine betaine was administered subcutaneously, and the mesentery (laser) or vena cava (stasis) was opened at the end of the experiments.

coagulation factors = test: Plasminogenesis, coagulation and anti Xa in the stasis-induced thrombosis model; type: in vivo, rat
Experimental: A laparotomy was performed to open the lower vena cava, on which a ligature was placed at T0, followed by subcutaneous injection of glycine betaine at T0+2 hours, followed by withdrawal of the clot and blood samples at T0+6 hours.

[2] = tested on: intrinsic coagulation pathway; test: Activated coagulation time (kaolin); type: in vivo, rat
Text: Activated Coagulation Time (Kaolin)
This test explores the intrinsic coagulation pathway. […] These tubes contain the kaolin activator. (Method HaemoTec., automated coagulation timer manufactured by MEDTRONIC HAEMOTEC Inc., Englewood, Colo., USA).

[3] = tested on: platelet aggregation induced with ADP; test: Aggregation induced with ADP; type: in vivo, rat; conditions: ADP 5 μM
Experimental: (§1) The aggregation is made in accordance to the methods of Cardinal & Flower. Pharmacol. Method. 1980, and to American Journal of Clinical Pathology, 1989; 92: 676-679, Sureney. J D. Whole Blood aggregometry. After a keeping period of 8 days, the rats are subjected to a fasting for 12 hours. Betaine is subcutaneously injected one hour before blood sampling. The rats are then anaesthetised with sodium Thiopental administered at a dose of 200 mg/Kg and the blood samples are taken by intracardiac puncture on a trisodium citrate solution (1 volume of solution at 3.8% citrate for 9 volumes of blood).
• This example evaluated aggregation induced with ADP. • Final ADP concentration 5 μM

[4] = tested on: platelet aggregation induced with collagen; test: Aggregation induced with collagen; type: in vivo, rat; conditions: collagen 10 μgr/ml
Experimental: as §1
• This example evaluates aggregation induced with collagen. • Collagen concentration 10 μgr/ml

[5] = tested on: platelet aggregations induced by ADP, collagen, epinephrine, adrenaline, thrombin, ristocetine, arachidonic acid; test: Human in vivo test, induced platelet aggregations in heavy smokers; conditions: two heavy smokers, oral capsules 5 g/day during 7 days
Experimental: This example describes a human in vivo test. Two volunteers (with a weight of about 70-75 kg), considered as heavy smokers (smoking more than 10 cigarettes/day) have orally taken capsules (gastro soluble) containing 5 g anhydrous glycine betaine/day during 7 days. Before administration of the betaine, the aggregations induced by ADP, by collagen, by epinephrine, by adrenaline, by thrombin, by ristocetine and by arachidonic acid were determined. After one week of treatment, the same platelet aggregations were measured. It appeared from said tests that all the induced platelet aggregations were reduced for all said endogenous agonists of at least 30%. Better results are expected when using oral dosage form with controlled release, such as gastro insoluble, but entero soluble form.

[6] = tested on: induced haemorrhage in rats; test: Anti-haemorrahgic activity with aspirin or heparin; type: in vivo, rat; conditions: glycine betaine 2-50 mg given with 100 mg aspirin or 2 mg heparin, versus aspirin or heparin alone
Experimental: This example tested anti-haemorrahgic activity using rats. Some rats received an active agent with haemorrahgic side effect, while other rats received said active agent together with a dose of betaine.
The following products were administered to rats for determining whether glycine betaine has an anti-haemorrahgic effect: • 100 mg aspirin per kg life body • 100 mg aspirin+50 mg glycine betaine per kg life body • 2 mg heparin • 2 mg heparin+50 mg glycine betaine • 2 mg heparin+10 mg glycine betaine • 2 mg heparin+2 mg glycine betaine

[7] = value taken for the deconvolution technique; cited from earlier work

`C[N+](C)(C)CC(=O)O` [Glycine betaine] showed a Clot weight ([1]; 1 mg/kg s.c.) of 3.1 ± 0.4 mg, a Clot weight ([1]; 2.5 mg/kg s.c.) of 1.63 ± 0.76 mg and a Clot weight ([1]; 5 mg/kg s.c.) of 0.76 ± 0.4 mg. For the same compound, the ACT (coagulation factors; 1 mg/kg) was 29.1 ± 2.3 s, the “Anti Xa” value (coagulation factors; 1 mg/kg) was 0.08 ± 0.1 units/ml and the Fibrinogen (coagulation factors; 1 mg/kg) was 2.63 ± 0.3 g/L. The Plasminogenesis (coagulation factors; 1 mg/kg) was 2.44 ± 0.58%, the Quick time (coagulation factors; 1 mg/kg) was 16.2 ± 1.2 s and the ACT (coagulation factors; 2.5 mg/kg) was 31.2 ± 2.6 s. The “Anti Xa” value (coagulation factors; 2.5 mg/kg) was 0.14 ± 0.10 units/ml, the Fibrinogen (coagulation factors; 2.5 mg/kg) was 2.2 ± 0.17 g/L and the Plasminogenesis (coagulation factors; 2.5 mg/kg) was 2 ± 0.15%. For the same compound, the Quick time (coagulation factors; 2.5 mg/kg) was 16.6 ± 0.7 s, the ACT (coagulation factors; 5 mg/kg) was 33.5 ± 1.9 s and the “Anti Xa” value (coagulation factors; 5 mg/kg) was 0.35 ± 0.15 units/ml. The Fibrinogen (coagulation factors; 5 mg/kg) was 2.32 ± 0.33 g/L, the Plasminogenesis (coagulation factors; 5 mg/kg) was 1.66 ± 0.58% and the Quick time (coagulation factors; 5 mg/kg) was 15.6 ± 0.4 s. The “Activated coagulation time” value ([2]; 10 mg/kg subcutaneous) was 128 s, the Activated coagulation time ([2]; 10 mg/kg subcutaneous, after 24 hours) was 71 ± 3.51 s and the Activated coagulation time ([2]; 20 mg/kg subcutaneous, after 24 hours) was 154.66 ± 11.01 s. For the same compound, the “Activated coagulation time” value ([2]; 30 mg/kg subcutaneous) was 179 s, the “Activated coagulation time” value ([2]; 50 mg/kg subcutaneous) was 215 s and the “Activated coagulation time relative to control” value ([2]; 50 mg/kg subcutaneous) was “four times higher”. It also gave an Activated coagulation time ([2]; oral 50 mg/kg, 1 hour) of 96 ± 11.27 s, an Activated coagulation time ([2]; oral 50 mg/kg, 6 hours) of 124.66 ± 9.29 s and an Activated coagulation time ([2]; oral 50 mg/kg, 24 hours) of 64.66 ± 7.37 s. For the same compound, the Activated coagulation time ([2]; oral 50 mg/kg, 48 hours) was 55.66 ± 7.02 s, the Amplitude ([3]; 2.5 mg/kg) was 13 +/− 0.82 ohms and the Velocity ([3]; 2.5 mg/kg) was 5.75 +/− 0.96 ohm/minute. For the same compound, the Amplitude ([3]; 5 mg/kg) was 7.25 +/− 0.96 ohms, the Velocity ([3]; 5 mg/kg) was 4.75 +/− 0.5 ohm/minute and the Amplitude ([3]; 10 mg/kg) was 0 +/− 0 ohms. For the same compound, the Velocity ([3]; 10 mg/kg) was 0 +/− 0 ohm/minute, the Amplitude ([4]; 2.5 mg/kg) was 13.75 +/− 0.96 ohms and the Velocity ([4]; 2.5 mg/kg) was 9.25 +/− 2.63 ohm/minute. The Amplitude ([4]; 5 mg/kg) was 5.5 +/− 1.29 ohms, the Velocity ([4]; 5 mg/kg) was 4.5 +/− 1 ohm/minute and the Amplitude ([4]; 10 mg/kg) was 1.5 +/− 1.29 ohms. The Velocity ([4]; 10 mg/kg) was 2 +/− 0.82 ohm/minute, the “Reduction of induced platelet aggregations (all agonists)” value [5] was “at least 30%” and the “Bleeding time after induced haemorrhage” value [6] was “bleeding time was reduced”. For the same compound, the Elimination half life [7] was 7.8 h.
